Measured values from ChEMBL document CHEMBL5331085 (Eur J Med Chem, 2023).
≈ marks a conversion by molar mass, not a printed value. Where “and” joins values, the source holds several entries; their conditions need not be identical. Equal values may be shown once. Calls of active or inactive are those of the source. The rule behind the calls is not given here. Positions of bridges follow the written chain, without caps; N, C: chain ends. Non-standard residues stand in square brackets, D forms with d. Residues, ends and D or L forms follow the SMILES beside them. *: point of attachment. Ileψ(thiazoline)Cys = CC[C@H](C)[C@H](N)C1=N[C@H](C(=O)*)CS1; dOrn = NCCC[C@@H](N)C(=O)O

What was measured:
[1] = Induction of drug resistance in Staphylococcus aureus ATCC 29213 assessed as test compound MIC at sub-MIC measured after 20 days (reference value: 1 ug/ml); format: functional; conditions: ATCC 29213, 480 h, time 20 day
[2] = (§1) Hemolytic activity in sheep erythrocytes incubated for 1 hr by absorbance based analysis; format: toxicity, cell-based, Ovis aries, Erythrocyte; conditions: sheep erythrocytes
[3] = tested on: Stenotrophomonas maltophilia; assay: Antimicrobial activity against Stenotrophomonas maltophilia ATCC 17808 incubated for 16 to 20 hrs by CLSI based broth dilution method; format: functional; conditions: time 16-20 hrs
[4] = tested on: Enterococcus faecium; assay: Antimicrobial activity against Enterococcus faecium ATCC 29212 incubated for 16 to 20 hrs by CLSI based broth dilution method; format: functional
[5] = tested on: Escherichia coli; assay: Antimicrobial activity against Escherichia coli ATCC 25922 incubated for 16 to 20 hrs by CLSI based broth dilution method; format: functional; conditions: time 16-20 hrs
[6] = tested on: Staphylococcus aureus; assay: Antimicrobial activity against Staphylococcus aureus ATCC 29213 incubated for 16 to 20 hrs by CLSI based broth dilution method; format: functional; conditions: time 16-20 hrs
[7] = tested on: Staphylococcus aureus; assay: Antimicrobial activity against methicillin-resistant Staphylococcus aureus incubated for 16 to 20 hrs by CLSI based broth dilution method; format: functional; conditions: time 16-20 hrs
[8] = tested on: Staphylococcus aureus; assay: Antibacterial activity against Staphylococcus aureus ATCC 29213 assessed as inhibition of bacterial growth at 0.5 ug/ml incubated for 16 to 18 hrs in presence of genomic DNA at 0.125 to 4 ug/ml by microplate reader analysis; format: functional, organism-based; conditions: dose 0.5 µg/ml, time 16-18 hrs
[9] = Cytotoxicity against human BGC cells assessed as inhibition of cell growth incubated for 72 hrs by CCK-8 assay; format: toxicity, cell-based
[10] = Cytotoxicity against HUVEC cells assessed as inhibition of cell growth incubated for 72 hrs by CCK-8 assay; format: toxicity, cell-based; conditions: human
[11] = Cytotoxicity against human WPMY-1 cells assessed as inhibition of cell growth incubated for 72 hrs by CCK-8 assay; format: toxicity, cell-based
[12] = tested on: Staphylococcus aureus; assay: Antimicrobial activity against Staphylococcus aureus; format: functional
[13] = tested on: Erythrocyte; assay: as §1; format: toxicity, cell-based, Ovis aries; conditions: erythrocyte, 1 h
[14] = tested on: Staphylococcus aureus; assay: Antimicrobial activity against methicillin-resistant Staphylococcus aureus infected in Kunming female mouse assessed as reduction in bacterial load in skin administered at labeled position and measured after 24 hrs; format: functional, organism-based; conditions: dose 5-10 mg/kg/day
[15] = tested on: Staphylococcus aureus; assay: Induction of drug resistance in Staphylococcus aureus ATCC 29213 at 0.1 times MIC measured after 20 passages; format: functional
[16] = tested on: Staphylococcus aureus; assay: Induction of ROS accumulation in Staphylococcus aureus ATCC 29213 at 0.25 to 0.5 ug/ml incubated for 30 mins by DCF-DA staining based fluorescence analysis; format: functional, organism-based; conditions: dose 0.25-0.5 µg/ml
[17] = tested on: Staphylococcus aureus; assay: Induction of ROS accumulation in Staphylococcus aureus ATCC 29213 at 1 ug/ml incubated for 30 mins by DCF-DA staining based fluorescence analysis; format: functional, organism-based; conditions: dose 1.0 µg/ml
[18] = tested on: Staphylococcus aureus; assay: Bactericidal activity against Staphylococcus aureus ATCC 29213 assessed as fold increase in MIC incubated for 16 to 20 hrs in presence of 50% plasma by broth dilution method relative to control; format: functional; conditions: time 16-20 hrs
[19] = tested on: Staphylococcus aureus; assay: Bactericidal activity against Staphylococcus aureus ATCC 29213 assessed as fold increase in MIC incubated for 16 to 20 hrs in presence of 50% serum by broth dilution method relative to control; format: functional; conditions: time 16-20 hrs
[20] = tested on: Staphylococcus aureus; assay: Induction of ROS accumulation in Staphylococcus aureus ATCC 29213 at 1 ug/ml incubated for 30 mins in presence of N-acetyl-L-cysteine by DCF-DA staining based fluorescence analysis; format: functional, organism-based; conditions: dose 1.0 µg/ml
[21] = tested on: Cell membrane; assay: Induction of membrane depolarization in Staphylococcus aureus ATCC 29213 assessed as increase in fluorescence intensity at 16 ug/ml treated for 6 mins prior to compound addition and further measured for 20 mins by DiSC3-5 dye based fluorescence analysis; conditions: dose 16.0 µg/ml
[22] = Stenotrophomonas maltophilia, ATCC 17808, read-out: MIC
[23] = Enterococcus faecium, ATCC 29212, time 16-20 hrs, read-out: MIC
[24] = Escherichia coli, ATCC 25922, read-out: MIC
[25] = Staphylococcus aureus, ATCC 29213, read-out: MIC

Compound | HC50 at 1 h [2] [µg/mL] | MIC [3, 22] [mg/L] | MIC [4, 23] [mg/L] | MIC [5, 24] [mg/L] | MIC [6, 25] [mg/L] | other results
CCn1cc(C(=O)O)c(=O)c2cc(F)c(N3CCNCC3)cc21 [NORFLOXACIN] |  |  |  |  |  | MIC [1]: 64 mg/L
CCCCCC[N+](C)(C)CCCOc1ccc(-c2ccc(OCCC[N+](C)(C)CCCCCC)cc2)cc1.[Br-].[Br-] | 487 | 1 | 1 | 2 | 2 | 
CCCCCCCC[N+](C)(C)CCCOc1ccccc1-c1ccccc1OCCC[N+](C)(C)CCCCCCCC.[Br-].[Br-] | 109 | 2 | 0.5 | 1 | 1 | 
C[C@H]1c2cccc(O)c2C(=O)C2=C(O)[C@]3(O)C(=O)C(C(N)=O)=C(O)[C@@H](N(C)C)[C@@H]3[C@@H](O)[C@@H]21.O [DOXYCYCLINE] |  |  |  |  |  | MIC90 [7]: 8 mg/L
COLISTIN |  |  |  |  |  | Activity [8]: Active
CCCCCCCC[N+](C)(C)CCCOc1cccc(-c2cccc(OCCC[N+](C)(C)CCCCCCCC)c2)c1.[Br-].[Br-] | 145 | 2 | 0.5 | 1 | 2 | 
C=C[C@]1(C)C[C@@H](OC(=O)CS[C@@H]2C[C@H]3CC[C@@H](C2)N3C)[C@]2(C)[C@H](C)CC[C@]3(CCC(=O)[C@H]32)[C@@H](C)[C@@H]1O [RETAPAMULIN] |  |  |  |  |  | IC50 at 72 h [9]: 16 mg/L (≈ 30.9 µM); IC50 at 72 h [10]: 25.5 mg/L (≈ 49.2 µM); IC50 at 72 h [11]: 13.9 mg/L (≈ 26.8 µM)
CCCCCC[N+](C)(C)CCCOc1ccccc1-c1ccccc1OCCC[N+](C)(C)CCCCCC.[Br-].[Br-] | > 1280 | 128 | 16 | 128 | 2 | 
CCCCCCN(CCCOc1ccccc1-c1ccccc1OCCCN(CCCCCC)C(=O)[C@@H](N)CCCCN)C(=O)[C@@H](N)CCCCN.Cl.Cl.Cl.Cl |  |  |  |  |  | MIC [12]: 0.5 mg/L
CC[C@H](C)[C@H](N)C1=N[C@H](C(=O)N[C@@H](CC(C)C)C(=O)N[C@H](CCC(=O)O)C(=O)N[C@H](C(=O)N[C@H]2CCCCNC(=O)[C@H](CC(N)=O)NC(=O)[C@@H](CC(=O)O)NC(=O)[C@H](Cc3cnc[nH]3)NC(=O)[C@@H](Cc3ccccc3)NC(=O)[C@H]([C@@H](C)CC)NC(=O)[C@@H](CCCN)NC2=O)[C@@H](C)CC)CS1 [BACITRACIN] ({Ileψ(thiazoline)Cys}-L[dE]IK[dOrn]I[dF]H[dD]N; lactam 4-C) |  |  | 16 (≈ 11.2 µM) | > 128 | 16 (≈ 11.2 µM) | 
CCCCCCCC[N+](C)(C)CCCOc1ccc2ccccc2c1-c1c(OCCC[N+](C)(C)CCCCCCCC)ccc2ccccc12.[Br-].[Br-] | 28 | 2 | 2 | 2 | 2 | HC50 [13]: 20 µg/mL; MIC [3]: 2 mg/L; MIC ([4]; time 16-20 hrs): 2 mg/L; MIC [5]: 2 mg/L; MIC [6]: 2 mg/L
GENTAMICIN |  |  |  |  |  | MIC90 [7]: 2 mg/L
CN[C@H](CC(C)C)C(=O)N[C@H]1C(=O)N[C@@H](CC(N)=O)C(=O)N[C@H]2C(=O)N[C@H]3C(=O)N[C@H](C(=O)N[C@H](C(=O)O)c4cc(O)cc(O)c4-c4cc3ccc4O)[C@H](O)c3ccc(c(Cl)c3)Oc3cc2cc(c3O[C@@H]2O[C@H](CO)[C@@H](O)[C@H](O)[C@H]2O[C@H]2C[C@](C)(N)[C@H](O)[C@H](C)O2)Oc2ccc(cc2Cl)[C@H]1O [VANCOMYCIN] | > 1280 |  |  |  |  | MIC90 [7]: 2 mg/L (≈ 1.38 µM); Activity [14]: Dose-Dependent Effect
CCCCCCCC[N+](C)(C)CCCOc1ccc(-c2ccc(OCCC[N+](C)(C)CCCCCCCC)cc2)cc1.[Br-].[Br-] | 83 | 2 | 0.5 | 1 | 1 | 
CCCCCCCCCC[N+](C)(C)CCCOc1ccc(-c2ccc(OCCC[N+](C)(C)CCCCCCCCCC)cc2)cc1.[Br-].[Br-] | 18 | 2 | 0.5 | 2 | 1 | 
CCCCCCCCCC[N+](C)(C)CCCOc1ccc2ccccc2c1-c1c(OCCC[N+](C)(C)CCCCCCCCCC)ccc2ccccc12.[Br-].[Br-] | 228 | 16 | 16 | 16 | 16 | HC50 [13]: 371 µg/mL; MIC [3]: 16 mg/L; MIC ([4]; time 16-20 hrs): 16 mg/L; MIC [5]: 16 mg/L; MIC [6]: 16 mg/L
CCCCCCCCCCCC[N+](C)(C)CCCOc1ccccc1-c1ccccc1OCCC[N+](C)(C)CCCCCCCCCCCC.[Br-].[Br-] | 12 | 32 | 4 | 32 | 16 | 
CC[C@H]1OC(=O)[C@H](C)[C@@H](O[C@H]2C[C@@](C)(OC)[C@@H](O)[C@H](C)O2)[C@H](C)[C@@H](O[C@@H]2O[C@H](C)C[C@H](N(C)C)[C@H]2O)[C@](C)(O)C[C@@H](C)C(=O)[C@H](C)[C@@H](O)[C@]1(C)O [ERYTHROMYCIN] |  |  |  |  |  | MIC90 [7]: 128 mg/L (≈ 174 µM)
COc1cccc(OC)c1C(=O)N[C@@H]1C(=O)N2[C@@H]1SC(C)(C)[C@@H]2C(=O)O |  |  |  |  |  | Activity [15]: Active
CC1(C)S[C@@H]2[C@H](NC(=O)[C@H](N)c3ccccc3)C(=O)N2[C@H]1C(=O)O |  |  |  |  |  | Activity [15]: Active
O=C(O)c1cn(C2CC2)c2cc(N3CCNCC3)c(F)cc2c1=O |  |  |  |  |  | Activity [15]: Active
CCCCCCCCCC[N+](C)(C)CCCOc1cccc(-c2cccc(OCCC[N+](C)(C)CCCCCCCCCC)c2)c1.[Br-].[Br-] | 19 | 2 | 0.5 | 2 | 1 | 
CCCCCCCCCC[N+](C)(C)CCCOc1ccccc1-c1ccccc1OCCC[N+](C)(C)CCCCCCCCCC.[Br-].[Br-] | 10 | 4 | 1 | 4 | 2 | 
CO[C@H]1/C=C/O[C@@]2(C)Oc3c(C)c(O)c4c(O)c(c(/C=N/N5CCN(C)CC5)c(O)c4c3C2=O)NC(=O)/C(C)=C\C=C\[C@H](C)[C@H](O)[C@@H](C)[C@@H](O)[C@@H](C)[C@H](OC(C)=O)[C@@H]1C [RIFAMPIN] |  |  |  |  |  | MIC90 [7]: 128 mg/L (≈ 156 µM)
CC[C@H](C)[C@H](NC(=O)CN)C(=O)NCC(=O)N[C@@H](C)C(=O)N[C@H](C(=O)N[C@@H](CC(C)C)C(=O)N[C@@H](CCCCN)C(=O)N[C@H](C(=O)N[C@@H](CC(C)C)C(=O)N[C@H](C(=O)N[C@H](C(=O)NCC(=O)N[C@@H](CC(C)C)C(=O)N1CCC[C@H]1C(=O)N[C@@H](C)C(=O)N[C@@H](CC(C)C)C(=O)N[C@H](C(=O)N[C@@H](CO)C(=O)N[C@@H](Cc1c[nH]c2ccccc12)C(=O)N[C@H](C(=O)N[C@@H](CCCCN)C(=O)N[C@@H](CCCNC(=N)N)C(=O)N[C@@H](CCCCN)C(=O)N[C@@H](CCCNC(=N)N)C(=O)N[C@@H](CCC(N)=O)C(=O)N[C@@H](CCC(N)=O)C(N)=O)[C@@H](C)CC)[C@@H](C)CC)[C@@H](C)O)[C@@H](C)O)C(C)C)C(C)C [MELITTIN] |  | 8 (≈ 2.81 µM) | 2 (≈ 0.703 µM) |  |  | Activity [16]: inactive; Activity [17]: Active; fold change (FC) [18]: >32; IC50 at 72 h [10]: 5.8 mg/L (≈ 2.04 µM); fold change (FC) [19]: >32; Activity [20]: inactive; Activity [21]: Active
CCCCCCN(CCCOc1ccc(-c2ccc(OCCCN(CCCCCC)C(=O)[C@@H](N)CCCCN)cc2)cc1)C(=O)[C@@H](N)CCCCN.Cl.Cl.Cl.Cl |  |  |  |  |  | MIC [12]: 1 mg/L
C[C@@H](O)[C@H]1C(=O)N2C(C(=O)O)=C(S[C@@H]3CN[C@H](C(=O)N(C)C)C3)[C@H](C)[C@H]12 [MEROPENEM] | > 1280 |  |  | 0.063 (≈ 0.164 µM) |  | 
C[C@H]1COc2c(N3CCN(C)CC3)c(F)cc3c(=O)c(C(=O)O)cn1c23 |  |  |  |  |  | Activity [15]: Active
CCCCCC[N+](C)(C)CCCOc1ccc2ccccc2c1-c1c(OCCC[N+](C)(C)CCCCCC)ccc2ccccc12.[Br-].[Br-] |  | 8 | 4 | 8 | 8 | HC50 [13]: 405 µg/mL and 868 µg/mL; MIC [3]: 8 mg/L; MIC ([4]; time 16-20 hrs): 8 mg/L; MIC [5]: 8 mg/L; MIC [6]: 8 mg/L
